{"source": "patent US20140221490A1", "about": "“METHODS OF TREATING PAIN” (Hospira, Inc., priority 2011, published 2014)", "assay": "Study 2: pharmacokinetics of HPβCD-diclofenac and excipient HPβCD in subjects with renal or hepatic impairment and healthy subjects (crossover vs itraconazole)", "format": "in vivo, human", "conditions": "for AUC(0 − t) / AUC∞ / CL / Vz / t½ / λz: mean ± SD; for Tmax: median; for maximum HPβCD plasma concentration: after administration of Dyloject", "protocol": "Subjects with mild chronic hepatic impairment, as defined by Child-Pugh Classification A, Score of 5 to 6 and a bilirubin of ≦2.5 mg/dl, were recruited. Subjects with renal or hepatic impairment were included if they were between 18-75 years of age, and healthy subjects between 18 and 65 years of age.\nInclusion criteria for healthy subjects were similar to those for Study 1. Healthy subjects were required to have normal renal function, defined as CrCl>80 mL/min, and normal hepatic function. […]\nSimilar to Study 1, there were allowances for a greater breadth of co-morbid conditions in the renal and hepatic groups. […] Diabetic patients must have been on a stable therapeutic regimen for four weeks.\nExclusion criteria included pregnancy, uncontrolled or poorly controlled diabetes, use of dialysis, fluctuating or rapidly deteriorating hepatic function, hepatic or other cancers, organ transplantation or immunosuppression, acute infections, or asthma. Subjects were excluded for any serious cardiovascular events, such as myocardial infarction, coronary artery bypass surgery or percutaneous coronary intervention, unstable angina, stroke or congestive heart failure. Restrictions were also placed on certain disease states, such as current intestinal disorders or infections, peptic ulcers, GI bleeding or cerebral hemorrhage. Subjects who were positive for hepatitis B or hepatitis C were excluded from the healthy and renal groups, but were included in the subjects with mild chronic hepatic impairment. […] Hypersensitivity to NSAIDs or diclofenac also prompted exclusion.\nSubjects with renal or hepatic impairment reported to the study site on study day 0 and remained at the site for two nights and two days. […] Subjects were discharged on study day 2 after being assessed by the investigator, and returned 7±3 days after dosing for final safety assessments. If there were no abnormal findings at discharge, the follow-up visit was completed via telephone.\nHealthy subjects reported to the study site on study day 0 and remained at the site for three nights and three days. […] Blood samples were obtained as described above for renal and hepatic subjects. […] For itraconazole, one blood sample was to be drawn at each time point to assay for HPβCD concentrations. Subjects were discharged on study day 3 after being assessed by the investigator, and returned 7±3 days after receiving the last dose of study drug for safety assessments.\nThe LOQ for the HPβCD assay was 100 ng/ml.\nPharmacokinetic parameters were calculated using non-compartmental analysis. Only those plasma concentrations equal to or greater than the lower limit of quantitation were used in the analysis. Actual sampling times were used in all pharmacokinetic analyses.\nThe maximum serum concentration (Cmax) and time to Cmax (Tmax) were taken directly from the data. The elimination rate constant, λz, was calculated as the negative of the slope of the terminal log-linear segment of the serum concentration-time curve. The range of data used for each subject and treatment was determined by visual inspection of a semi-logarithmic plot of concentration vs. time. Elimination half-life (t½) was calculated according to the following equation;\nwhere Ctf is the final concentration≧: LOQ. Total plasma clearance (CL) was calculated as Dose/AUC, and volume of distribution (Vz) was calculated as Dose/λz AUC.\nComparisons among the three subject types were done using […]. The same model was used to test for the effect of hepatic impairment on the pharmacokinetics of diclofenac and HPβCD but without additional comparisons, as there were only two groups.", "key": {"[1]": {"conditions": "Study 2, Healthy matches (to hepatic group), 37.5 mg HPβCD-diclofenac IV, plasma HPβCD"}, "[2]": {"conditions": "Study 2, Healthy matches (to renal groups), 37.5 mg HPβCD-diclofenac IV, plasma HPβCD"}, "[3]": {"conditions": "Study 2, Healthy, plasma HPβCD after 37.5 mg HPβCD-diclofenac IV"}, "[4]": {"conditions": "Study 2, Healthy, plasma HPβCD after 200 mg itraconazole IV"}, "[5]": {"conditions": "Study 2, Mild Hepatic, 37.5 mg HPβCD-diclofenac IV, plasma HPβCD"}, "[6]": {"conditions": "Study 2, Mild Renal, 37.5 mg HPβCD-diclofenac IV, plasma HPβCD"}, "[7]": {"conditions": "Study 2, Moderate renal, 37.5 mg HPβCD-diclofenac IV, plasma HPβCD"}, "[8]": {"conditions": "moderate renal insufficiency compared to healthy subjects"}, "[9]": {"conditions": "subjects with moderate renal insufficiency, 37.5 mg dose of HPβCD-diclofenac"}}}
{"smiles": "CC(O)COC[C@H]1O[C@@H]2O[C@H]3[C@H](O)[C@@H](O)[C@@H](O[C@H]4[C@H](O)[C@@H](O)[C@@H](O[C@H]5[C@H](O)[C@@H](O)[C@@H](O[C@H]6[C@H](O)[C@@H](O)[C@@H](O[C@H]7[C@H](O)[C@@H](O)[C@@H](O[C@H]8[C@H](O)[C@@H](O)[C@@H](O[C@H]1[C@H](O)[C@H]2O)O[C@@H]8COCC(C)O)O[C@@H]7COCC(C)O)O[C@@H]6COCC(C)O)O[C@@H]5COCC(C)O)O[C@@H]4COCC(C)O)O[C@@H]3COCC(C)O", "note": "(stereo partly drawn) [HPβCD, hydroxypropyl-beta-cyclodextrin]", "values": [{"measurement": "PK in subjects with mild hepatic impairment versus matched healthy controls", "setting": "37.5 mg IV", "value": "no differences"}, {"measurement": "exposure to HPβCD, geometric least squares mean ratio of AUC∞, relative to 8000 mg as Sporanox", "setting": "333.3 mg HPβCD as HPβCD-diclofenac, healthy subjects", "value": 4.58, "unit": "%"}, {"measurement": "AUC(0 − t)", "setting": "[1]", "value": "52,982 ± 11,267 h × ng/mL"}, {"measurement": "AUC∞", "setting": "[1]", "value": "53,651 ± 11,321 h × ng/mL"}, {"measurement": "CL", "setting": "[1]", "value": "107 ± 21.2", "unit": "mL/min"}, {"measurement": "Vz", "setting": "[1]", "value": "20.6 ± 2.45", "unit": "L"}, {"measurement": "t½", "setting": "[1]", "value": "2.28 ± 0.42", "unit": "h"}, {"measurement": "λz", "setting": "[1]", "value": "0.3127 ± 0.052", "unit": "h⁻¹"}, {"measurement": "Tmax", "setting": "[1]", "value": 0.083, "unit": "h"}, {"measurement": "AUC(0 − t)", "setting": "[2]", "value": "66,449 ± 12,642 h × ng/mL"}, {"measurement": "AUC∞", "setting": "[2]", "value": "67,316 ± 12,615 h × ng/mL"}, {"measurement": "CL", "setting": "[2]", "value": "85.2 ± 16.5", "unit": "mL/min"}, {"measurement": "Vz", "setting": "[2]", "value": "23.3 ± 9.84", "unit": "L"}, {"measurement": "t½", "setting": "[2]", "value": "3.29 ± 1.66", "unit": "h"}, {"measurement": "λz", "setting": "[2]", "value": "0.2510 ± 0.095", "unit": "h⁻¹"}, {"measurement": "Tmax", "setting": "[2]", "value": 0.083, "unit": "h"}, {"measurement": "AUC(0 − t)", "setting": "[3]", "value": "58,994 ± 14,123 h × ng/mL"}, {"measurement": "AUC∞", "setting": "[3]", "value": "59,709 ± 14,217 h × ng/mL"}, {"measurement": "CL", "setting": "[3]", "value": "98.0 ± 22.7", "unit": "mL/min"}, {"measurement": "Vz", "setting": "[3]", "value": "21.8 ± 7.36", "unit": "L"}, {"measurement": "t½", "setting": "[3]", "value": "2.74 ± 1.35", "unit": "h"}, {"measurement": "λz", "setting": "[3]", "value": "0.2909 ± 0.0860", "unit": "h⁻¹"}, {"measurement": "Tmax", "setting": "[3]", "value": 0.083, "unit": "h"}, {"measurement": "CL", "setting": "[4]", "value": "106 ± 19.0", "unit": "mL/min"}, {"measurement": "Vz", "setting": "[4]", "value": "23.5 ± 5.65", "unit": "L"}, {"measurement": "t½", "setting": "[4]", "value": "2.54 ± 0.25", "unit": "h"}, {"measurement": "λz", "setting": "[4]", "value": "0.2752 ± 0.0244", "unit": "h⁻¹"}, {"measurement": "Tmax", "setting": "[4]", "value": 1.083, "unit": "h"}, {"measurement": "AUC(0 − t)", "setting": "[5]", "value": "55,946 ± 17,233 h × ng/mL"}, {"measurement": "AUC∞", "setting": "[5]", "value": "56,802 ± 17,412 h × ng/mL"}, {"measurement": "CL", "setting": "[5]", "value": "107 ± 33.8", "unit": "mL/min"}, {"measurement": "Vz", "setting": "[5]", "value": "20.0 ± 4.19", "unit": "L"}, {"measurement": "t½", "setting": "[5]", "value": "2.28 ± 0.60", "unit": "h"}, {"measurement": "λz", "setting": "[5]", "value": "0.3226 ± 0.084", "unit": "h⁻¹"}, {"measurement": "Tmax", "setting": "[5]", "value": 0.083, "unit": "h"}, {"measurement": "AUC(0 − t)", "setting": "[6]", "value": "127,141 ± 90,489 h × ng/mL"}, {"measurement": "AUC∞", "setting": "[6]", "value": "128,349 ± 91,132 h × ng/mL"}, {"measurement": "CL", "setting": "[6]", "value": "59.0 ± 31.3", "unit": "mL/min"}, {"measurement": "Vz", "setting": "[6]", "value": "13.6 ± 5.38", "unit": "L"}, {"measurement": "t½", "setting": "[6]", "value": "2.87 ± 0.69", "unit": "h"}, {"measurement": "λz", "setting": "[6]", "value": "0.2549 ± 0.068", "unit": "h⁻¹"}, {"measurement": "Tmax", "setting": "[6]", "value": 0.083, "unit": "h"}, {"measurement": "AUC(0 − t)", "setting": "[7]", "value": "169,042 ± 52,722 h × ng/mL"}, {"measurement": "AUC∞", "setting": "[7]", "value": "165,728 ± 60,386 h × ng/mL"}, {"measurement": "CL", "setting": "[7]", "value": "36.2 ± 10.0", "unit": "mL/min"}, {"measurement": "Vz", "setting": "[7]", "value": "17.7 ± 1.88", "unit": "L"}, {"measurement": "t½", "setting": "[7]", "value": "6.04 ± 1.94", "unit": "h"}, {"measurement": "λz", "setting": "[7]", "value": "0.1226 ± 0.033", "unit": "h⁻¹"}, {"measurement": "Tmax", "setting": "[7]", "value": 0.083, "unit": "h"}, {"measurement": "exposure to HPβCD relative to that of itraconazole", "setting": "after a single dose", "value": "1/20"}, {"measurement": "maximum HPβCD plasma concentration", "setting": "normal healthy subjects", "value": 70, "unit": "µg/mL"}, {"measurement": "maximum HPβCD plasma concentration", "setting": "subjects with moderate renal impairment", "value": 106, "unit": "µg/mL"}, {"measurement": "exposure to HPβCD relative to that of itraconazole", "setting": "after steady state", "value": "⅛"}, {"measurement": "decrease in CL of HPβCD", "setting": "[8]", "value": 2.4, "unit": "fold"}, {"measurement": "increase in t½ of HPβCD", "setting": "[8]", "value": 1.8, "unit": "fold"}, {"measurement": "exposure to HPβCD lower than in healthy subjects administered itraconazole, based on AUC(0-T)", "setting": "[9]", "value": 7.9, "unit": "fold"}, {"measurement": "exposure to HPβCD lower than in healthy subjects administered itraconazole, based on average concentration at steady state (Cav)", "setting": "[9]", "value": 3.9, "unit": "fold"}]}
